Each compound was assayed against T1, Probable integral membrane cytochrome D ubiquinol oxidase (Subunit II) CydB (Cytochrome BD-I oxidase subunit II) (Mycobacterium tuberculosis (strain ATCC 25618 / H37Rv), UniProt O06139) (assay: Mtb cytochrome bd inhibition assay).
T1 sequence (O06139 whole entry): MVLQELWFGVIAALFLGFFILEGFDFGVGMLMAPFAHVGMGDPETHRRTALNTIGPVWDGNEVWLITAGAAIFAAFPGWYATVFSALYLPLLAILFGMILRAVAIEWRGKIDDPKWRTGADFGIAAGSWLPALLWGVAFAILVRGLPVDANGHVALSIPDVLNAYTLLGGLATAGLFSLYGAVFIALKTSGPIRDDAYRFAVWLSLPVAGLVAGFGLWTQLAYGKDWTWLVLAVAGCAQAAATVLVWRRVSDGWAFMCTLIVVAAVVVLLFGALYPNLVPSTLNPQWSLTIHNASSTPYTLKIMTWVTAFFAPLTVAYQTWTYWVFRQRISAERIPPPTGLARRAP
`Cc1c(-c2ccc(Cc3ccccc3)cc2)[nH]c2ccccc2c1=O` [US10799494, Compound CK-2-88] was tested, and the IC50 was 20 nM. With `Cc1c(-c2ccc(Oc3ccc(F)cc3)nc2)[nH]c2ccccc2c1=O` [US10799494, Compound CK-3-14] the IC50 was 10600 nM. `Cc1c(-c2ccc(Oc3ccc(OC(F)(F)F)cc3)nc2)[nH]c2ccccc2c1=O` [US10799494, Compound CK-3-22] gave an IC50 of 140 nM. With `COc1c(C)c(-c2ccc(Cc3ccccc3)cc2)nc2ccccc12` [US10799494, Compound CK-3-23] the IC50 was 3600 nM. With `CCOC(=O)c1c(-c2ccc(Cc3ccc(OC(F)(F)F)cc3)cc2)[nH]c2ccccc2c1=O` [US10799494, Compound GN-1710] the IC50 was 250 nM. For `Cc1c(-c2ccc(N3CCCCC3)cc2)[nH]c2cc(F)cc(F)c2c1=O` [US10799494, Compound MTD-403], the IC50 was 270 nM. `Cc1c(-c2ccc(-c3ccc(C(F)(F)F)nc3)nc2)[nH]c2ccccc2c1=O` [US10799494, Compound PG-128] gave an IC50 of 4470 nM. In the case of `Cc1[nH]c2ccccc2c(=O)c1-c1ccc(Oc2ccc(OC(F)(F)F)cc2)cc1` [US10799494, Compound PG-203], the IC50 is reported as 70 nM. `O=c1cc(-c2ccc(Cc3ccc(OC(F)(F)F)cc3)cc2)[nH]c2ccccc12` [US10799494, Compound RKA-70] gave an IC50 of 750 nM. `O=c1cc(-c2ccc(Cc3ccc(OC(F)(F)F)cc3)cc2)n(O)c2ccccc12` [US10799494, Compound RKA-73] showed an IC50 of 310 nM. `COc1ccc2c(=O)c(C)c(-c3ccc(Oc4ccc(OC(F)(F)F)cc4)nc3)[nH]c2c1` [US10799494, Compound RKA-259] gave an IC50 of 3600 nM. With `Cc1c(-c2ccc(N3CCCCC3)cc2)[nH]c2ccccc2c1=O` [US10799494, Compound RKA-307] the IC50 was 440 nM. In the case of `COc1ccc2c(=O)c(C)c(-c3ccc(N4CCCCC4)cc3)[nH]c2c1` [US10799494, Compound RKA-310], the IC50 is reported as 1400 nM. In the case of `Cc1c(-c2ccc(-c3ccc(OC(F)(F)F)cc3)nc2)[nH]c2ccccc2c1=O` [US10799494, Compound SL-2-25], the IC50 is reported as 290 nM. `O=c1cc(-c2cnn(Cc3ccc(OC(F)(F)F)cc3)c2)[nH]c2ccccc12` [US10799494, Compound WDH-1W-5] gave an IC50 of 15800 nM. Compound `Cc1c(-c2cnn(Cc3ccc(OC(F)(F)F)cc3)c2)[nH]c2ccccc2c1=O` [US10799494, Compound WDH-2A-9] has an IC50 of 6500 nM. `Cc1c(-c2ccc(-c3ccc(C(F)(F)F)cc3)nc2)[nH]c2ccccc2c1=O` [US10799494, Example RKA 142] gave an IC50 of 2020 nM. In the case of `CC(C)c1c(-c2cnn(Cc3ccc(OC(F)(F)F)cc3)c2)[nH]c2ccccc2c1=O` [US10799494, Example WDH-2G-6], the IC50 is reported as 82 nM.

From BindingDB's records for patent US10799494 (2020)
